Data from US8932590B2, “Method of adsorbing transforming growth factor β” (TORAY Industries, Inc., priority 2002, dated 2015).
Where a name gives a salt, the structure may show the parent alone.

How the values were obtained:
tumor [1] = assay: Visual observation of tumor metastasis; assay type: in vivo, rat; conditions: rats dissected 35 days after the extracorporeal perfusion, region other than beneath the back skin
Excerpt: The test procedures of Examples 10 to 15 and Comparative Examples 11 to 22 were repeated, except for using three other rats (Examples 16 to 18, and Comparative Examples 21 to 26). The metastasis of the tumor to a region other than beneath the back skin to which the tumor was inoculated was visually observed (Table 6). The rats were dissected 35 days after the extracorporeal perfusion, and the tumor was observed. As a result, the metastasis was hardly observed in cases in which the extracorporeal perfusion treatment was carried out two days into the administration of gemcitabine hydrochloride.

tumor [2] = assay: Combined treatment of anticancer agent and extracorporeal perfusion: tumor volume; assay type: in vivo, rat; conditions: anticancer agent administered, no extracorporeal perfusion
Procedure: The dimensions of the tumor region of a rat were measured using micrometer calipers. The longest diameter of the tumor was defined as the major axis, and a diameter of the tumor passing through the midpoint of the major axis in a direction perpendicular to the major axis was defined as the minor axis. The tumor volume was defined according to the following equation: Tumor Volume=(Major Axis)×(Minor Axis)×(Minor Axis)×0.5[Adsorbent for TGF β and Immunosuppressive Acidic Protein] […]
One week after the inoculation of cancer cells (rat body weight: 400 to 430 g), 0.6 mg of gemcitabine hydrochloride was injected in the vicinity of the tumor. The gemcitabine hydrochloride used herein was prepared by dissolving an injection preparation thereof (available from Eli Lilly Japan K.K.) in physiological saline to yield a 20 mg/mL solution. […]
Six rats were treated, and the tumor volumes after the inoculation of cancer cells were determined. The results in Comparative Examples 15 to 20, in which the anticancer agent was administered but the extracorporeal perfusion treatment was not carried out, are shown in Table 5.

SMILES: Nc1ccn([C@@H]2O[C@H](CO)[C@@H](O)C2(F)F)c(=O)n1 [Comparative Example 15, gemcitabine hydrochloride]
- Metastasis (visual observation) (tumor [1]; listed as Com. Ex. 25, hydrochloride): dermic micrometastasis (2 mm
- Metastasis (visual observation) (tumor [1]; listed as Com. Ex. 26, hydrochloride): dermic micrometastasis (2 mm
- Tumor volume (tumor [2]; 14 days after inoculation of cancer cells): <0.06 mL
- Tumor volume (tumor [2]; 21 days after inoculation of cancer cells, hydrochloride): 4.3 mL
- Tumor volume (tumor [2]; 21 days after inoculation of cancer cells, listed as Comparative Example 16, hydrochloride): 7.9 mL
- Tumor volume (tumor [2]; 21 days after inoculation of cancer cells, listed as Comparative Example 17, hydrochloride): 6.6 mL
- Tumor volume (tumor [2]; 21 days after inoculation of cancer cells, listed as Comparative Example 18, hydrochloride): 7.4 mL
- Tumor volume (tumor [2]; 21 days after inoculation of cancer cells, listed as Comparative Example 19, hydrochloride): 7.0 mL
- Tumor volume (tumor [2]; 21 days after inoculation of cancer cells, listed as Comparative Example 20, hydrochloride): 4.5 mL
- Tumor volume (tumor [2]; 28 days after inoculation of cancer cells, hydrochloride): 26 mL
- Tumor volume (tumor [2]; 28 days after inoculation of cancer cells, listed as Comparative Example 16, hydrochloride): 41 mL
- Tumor volume (tumor [2]; 28 days after inoculation of cancer cells, listed as Comparative Example 17, hydrochloride): 24 mL
- Tumor volume (tumor [2]; 28 days after inoculation of cancer cells, listed as Comparative Example 18, hydrochloride): 35 mL
- Tumor volume (tumor [2]; 28 days after inoculation of cancer cells, listed as Comparative Example 19, hydrochloride): 30 mL
- Tumor volume (tumor [2]; 28 days after inoculation of cancer cells, listed as Comparative Example 20, hydrochloride): 25 mL
- Tumor volume (tumor [2]; 35 days after inoculation of cancer cells, hydrochloride): 41 mL
- Tumor volume (tumor [2]; 35 days after inoculation of cancer cells, listed as Comparative Example 16, hydrochloride): 59 mL
- Tumor volume (tumor [2]; 35 days after inoculation of cancer cells, listed as Comparative Example 17, hydrochloride): 38 mL
- Tumor volume (tumor [2]; 35 days after inoculation of cancer cells, listed as Comparative Example 18, hydrochloride): 54 mL
- Tumor volume (tumor [2]; 35 days after inoculation of cancer cells, listed as Comparative Example 19, hydrochloride): 47 mL
- Tumor volume (tumor [2]; 35 days after inoculation of cancer cells, listed as Comparative Example 20, hydrochloride): 37 mL
